Converted amounts (≈) assume the structure as drawn.
Tests used:
[1] = system: immunosuppressive activity; experiment: Standard pharmacological test procedures described supra (isomers of Example 1; overall immunosuppressive activity); set-up: species or system mouse; details: results not presented for the inactive isomer
Protocol: (§1) Immunosuppressive activity was evaluated in an in vitro standard pharmacological test procedure to measure lymphocyte proliferation (LAF) and in two in vivo standard pharmacological test procedures. The first in vivo procedure was a popliteal lymph node (PLN) test procedure which measured the effect of compounds of this invention on a mixed lymphocyte reaction and the second in vivo procedure evaluated the survival time of a pinch skin graft.
(§2) Briefly, cells from the thymus of normal BALB/c mice are cultured for 72 hours with PHA and IL-1 and pulsed with tritiated thymidine during the last six hours. […] Cells are harvested and incorporated; radioactivity is determined. Inhibition of lymphoproliferation is assessed in percent change in counts per minute from non-drug treated controls. The results are expressed by the following ratio: [formula]
A mixed lymphocyte reaction (MLR) occurs when lymphoid cells from genetically distinct animals are combined in tissue culture. Each stimulates the other to undergo blast transformation which results in increased DNA synthesis that can be quantified by the incorporation of tritiated thymidine. […] On Day 3 and Day 4, tritiated thymidine is given i.p., b.i.d. On Day 5, the hind popliteal lymph nodes are removed and dissolved, and radioactivity counted. […] Percent suppression is calculated using the non-drug treated animals as allogenic control. […]

[2] = system: thymocyte (lymphocyte) proliferation; experiment: Comitogen-induced thymocyte proliferation procedure (LAF); assay type: cell-based; details: in vitro, thymus cells of BALB/c mice, PHA and IL-1, 72 hours; ratio calculated as described (rapamycin 1.0)
Protocol: as §1, §2
(§3) *Calculation of ratios was described supra.
(§4) Transplanted pinch skin grafts are typically rejected within 6-7 days without the use of an immunosuppressive agent. […] (see, I. Roitt et al. Immunology, C. V. Moseby Co. 1989, p 12.8-12.11).

[3] = system: mixed lymphocyte reaction in popliteal lymph node (host vs. graft); experiment: Popliteal lymph node (PLN) test procedure, in vivo mixed lymphocyte reaction; set-up: species or system mouse (BALB/c donors, C3H recipients); details: for PLN (ratio): p.o. daily Day 0 to Day 4, ratio calculated as described (rapamycin 1.0)
Protocol: as §1
A mixed lymphocyte reaction (MLR) occurs when lymphoid cells from genetically distinct animals are combined in tissue culture. Each stimulates the other to undergo blast transformation which results in increased DNA synthesis that can be quantified by the incorporation of tritiated thymidine. Since stimulating a MLR is a function of disparity at Major Histocompatibility antigens, an in vivo popliteal lymph node (PLN) test procedure closely correlates to host vs. graft disease. Briefly, irradiated spleen cells from BALB/c donors are injected into the right hind foot pad of recipient C3H mice. The drug is given daily, p.o. from Day 0 to Day 4. On Day 3 and Day 4, tritiated thymidine is given i.p., b.i.d. On Day 5, the hind popliteal lymph nodes are removed and dissolved, and radioactivity counted. The corresponding left PLN serves as the control for the PLN from the injected hind foot. Percent suppression is calculated using the non-drug treated animals as allogenic control. […] Results are expressed by the following ratio: [formula]
as §3, §4

[4] = system: pinch skin graft rejection; experiment: Survival time of pinch skin graft; assay type: in vivo, mouse (male DBA/2 donors, male BALB/c recipients); details: for Skin Graft survival (days + SD): intraperitoneally, mean graft survival time ± S.D.
Protocol: as §1
The second in vivo test procedure is designed to determine the survival time of pinch skin graft from male DBA/2 donors transplanted to male BALB/c recipients. The method is adapted from Billingham R. E. and Medawar P. B., J. Exp. Biol. 28:385-(402), 1951. Briefly, a pinch skin graft from the donor is grafted on the dorsum of the recipient as a homograft, and an autograft is used as control in the same region. […] Untreated recipients serve as rejection control. The graft is monitored daily and observations are recorded until the graft becomes dry and forms a blackened scab. This is considered as the rejection day. The mean graft survival time (number of days±S.D.) of the drug treatment group is compared with the control group.
as §4

[5] = system: Candida albicans ATCC 10231; experiment: Antifungal plate test, MIC, strain ATCC 10231; assay type: cell-based; details: plate disk test
Protocol: (§5) The following represents the typical procedure used. Compound to be tested was placed on sterile dried 1/4" plate disks, and allowed to dry. Agar plates were seeded with fungi and allowed to solidify. The impregnated disks were placed on the seeded Agar surface and incubated for the time required for the particular culture. Results are expressed in MIC (μg/ml) to inhibit growth.

[6] = system: Candida albicans ATCC 38246; experiment: Antifungal plate test, MIC, strain ATCC 38246; assay type: cell-based; details: plate disk test
Protocol: as §5

[7] = system: Candida albicans ATCC 38247; experiment: Antifungal plate test, MIC, strain ATCC 38247; assay type: cell-based; details: plate disk test
Protocol: as §5

[8] = system: Candida albicans ATCC 38248; experiment: Antifungal plate test, MIC, strain ATCC 38248; assay type: cell-based; details: plate disk test
Protocol: as §5

Candida albicans 3669 = experiment: Antifungal plate test, MIC, strain 3669; assay type: cell-based; details: plate disk test
Protocol: as §5

transplant rejection = details: cited from earlier work
Candida albicans = details: particularly against Candida albicans, in vitro and in vivo; cited from earlier work
[9] = system: experimental allergic encephalomyelitis, a model for multiple sclerosis; details: cited from earlier work
IGE-like antibodies = details: in vivo; cited from earlier work

Compound	LAF (ratio) [2]	Skin Graft survival (days + SD) [4] [days]	MIC [5] [µg/mL]	MIC [6] [µg/mL]	MIC [7] [µg/mL]	MIC [8] [µg/mL]	MIC (Candida albicans 3669) [µg/mL]	Immunosuppressive effect / inhibition of transplant rejection (transplant rejection)	further results
CO[C@H]1C[C@@H]2CC[C@@H](C)[C@@](O)(O2)C(=O)C(=O)N2CCCC[C@H]2C(=O)O[C@H]([C@H](C)C[C@@H]2CC[C@@H](O)[C@H](OC)C2)CC(=O)[C@H](C)/C=C(\C)[C@@H](O)[C@@H](OC)C(=NO)[C@H](C)C[C@H](C)/C=C/C=C/C=C/1C (single isomer, unassigned) [isomerically pure mono-oxime, Rapamycin-27-oxime]	–	–	–	–	–	–	–	–	Biological activity of the isomers of Example 1 [1]: biologically inactive
CO[C@H]1C[C@@H]2CC[C@@H](C)[C@@](O)(O2)C(=O)C(=O)N2CCCC[C@H]2C(=O)O[C@H]([C@H](C)C[C@@H]2CC[C@@H](O)[C@H](OC)C2)CC(=O)[C@H](C)/C=C(\C)[C@@H](O)[C@@H](OC)C(=NOCc2ccccc2)[C@H](C)C[C@H](C)/C=C/C=C/C=C/1C [Example 2, Rapamycin-O-benzyl-27-oxime]	0.87	9.3 ± 1.4	> 0.4	> 0.4	> 0.4	> 0.4	> 0.4	–	PLN (ratio) [3]: 1.39
CON=C1[C@H](C)C[C@H](C)/C=C/C=C/C=C(\C)[C@@H](OC)C[C@@H]2CC[C@@H](C)[C@@](O)(O2)C(=O)C(=O)N2CCCC[C@H]2C(=O)O[C@H]([C@H](C)C[C@@H]2CC[C@@H](O)[C@H](OC)C2)CC(=O)[C@H](C)/C=C(\C)[C@@H](O)[C@H]1OC [Example 3, Rapamycin-O-methyl-27-oxime]	0.007	9.5 ± 1.4	0.2 (≈ 0.212 µM)	0.05 (≈ 0.053 µM)	0.2 (≈ 0.212 µM)	0.05 (≈ 0.053 µM)	0.2 (≈ 0.212 µM)	–	–
C=CC[C@@H]1/C=C(\C)C[C@H](C)C[C@H](OC)[C@H]2O[C@@](O)(C(=O)C(=O)N3CCCC[C@H]3C(=O)O[C@H](/C(C)=C/[C@@H]3CC[C@@H](O)[C@H](OC)C3)[C@H](C)[C@@H](O)CC1=O)[C@H](C)C[C@@H]2OC [FK-506]	–	–	–	–	–	–	–	effective as immunosuppressive agents	–
CO[C@H]1C[C@@H]2CC[C@@H](C)[C@@](O)(O2)C(=O)C(=O)N2CCCC[C@H]2C(=O)O[C@H]([C@H](C)C[C@@H]2CC[C@@H](O)[C@H](OC)C2)CC(=O)[C@H](C)/C=C(\C)[C@@H](O)[C@@H](OC)C(=O)[C@H](C)C[C@H](C)/C=C/C=C/C=C/1C [Rapamycin]	–	12.0 ± 1.7	–	–	–	–	–	effective in inhibiting transplant rejection	Antifungal activity (Candida albicans): antifungal activity, particularly against Candida albicans, both in vitro and in vivo; Effect in experimental allergic encephalomyelitis model [9]: effective in the experimental allergic encephalomyelitis model; Inhibition of formation of IGE-like antibodies (IGE-like antibodies): effectively inhibited the formation of IGE-like antibodies
Rapamycin-27-oxime [Example 1]	0.25	10.0 ± 1.6	0.05	0.2	0.05	0.1	0.2	–	T cell proliferation in the PLN test procedure (in words) ([3]; from negative PLN ratio): may cause T cell proliferation in the PLN test procedure; PLN (ratio) [3]: -1.40; Skin graft survival time (in words) ([4]; compared with grafts without immunosuppressive agent, rejected within 6-7 days): increased survival time observed in the skin graft test procedure; Biological activity of the isomers of Example 1 [1]: active in the assays described supra
cyclosporin A	–	–	–	–	–	–	–	effective as immunosuppressive agents	–

— patent publication US5023264A, “Rapamycin oximes” (American Home Products Corporation, priority 1990, dated 1991)
